From patent US20070275944A1, “Antioxidants and methods of their use” (The Board of Trustees Operating Michigan State University, priority 2006, published 2007)

Tested on: mouse brain, dopaminergic neurons
Assay: MRI imaging of mouse brain after injection of tracer
Type: in vivo
Details: mice, MRI images 48 hours after administration
Text: The central figure is a chimera directly comparing the left hemisphere of the control with the right hemisphere of the TP-TEMPO treated. In this central image the “Y” shaped region (1) is where the dopaminergic neurons are found.
With its dependence on the more biologically variable parameters of proton density, longitudinal relaxation time (T1), and transverse relaxation time (T2), variable image contrast can be achieved by using different pulse sequences and by changing the imaging parameters. Signal intensities on T1, T2, and proton density-weighted images relate to specific tissue characteristics. Moreover, with MRI's multi-planar capability, the imaging plane can be optimized for the anatomic area being studied, and the relationship of lesions to eloquent areas of the brain can be defined more accurately. Since T2-weighted images are most sensitive for detecting brain pathology, patients with suspected intracranial disease are typically screened using the T2-weighted regime. However, it has proven difficult to apply MRI to Parkinson's disease, as the dompaminergic neurons have the same MRI characteristics as the surrounding tissues, so that the Parkinson's lesions are invisible using conventional MRI and can only be detected using histology post-mortem. […]

CN1CC=C(C2CC(C)(C)N(O)C(C)(C)C2)CC1 [TP-TEMPO, 2,2,6,6-tetramethyl-4-(1-methyl-1,2,3,6-tetrahydropyridin-4-yl)piperidin-1-oxyl]
migration of probe to the dopaminergic neurons: preferentially migrated to the dopaminergic neurons | partitioning of probe into the brain: partitioned preferentially into the brain
